Measurements taken from ChEMBL document CHEMBL3739366, “Discovery of HTL6641, a dual orexin receptor antagonist with differentiated pharmacodynamic properties” (Medchemcomm, 2015).
pKi: −log10 of the molar value. The source made the active and inactive calls. The rule behind the calls is not given here.

Tests used:
Rattus norvegicus [1] = test: Ex-vivo receptor occupancy of orexin receptor-2 Sprague-Dawley rat frontal cortex using [3H]EMPA at 1 mg/kg, po after 1 hr by autoradiography relative to control; assay type: functional
[2] = Plasma concentration in Sprague-Dawley rat plasma at 1 mg/kg, po after 1 hr; assay type: ADME, organism-based
Rattus norvegicus [3] = test: Antiinsomnic activity in CD1 rat assessed as effect on sleep architecture at 30 mg/kg, po administered at 18 hrs at circadian time; assay type: functional, organism-based
[4] = molecular target: T1, Orexin/Hypocretin receptor type 1 (Homo sapiens) (UniProt O43613)
T1 sequence (whole entry): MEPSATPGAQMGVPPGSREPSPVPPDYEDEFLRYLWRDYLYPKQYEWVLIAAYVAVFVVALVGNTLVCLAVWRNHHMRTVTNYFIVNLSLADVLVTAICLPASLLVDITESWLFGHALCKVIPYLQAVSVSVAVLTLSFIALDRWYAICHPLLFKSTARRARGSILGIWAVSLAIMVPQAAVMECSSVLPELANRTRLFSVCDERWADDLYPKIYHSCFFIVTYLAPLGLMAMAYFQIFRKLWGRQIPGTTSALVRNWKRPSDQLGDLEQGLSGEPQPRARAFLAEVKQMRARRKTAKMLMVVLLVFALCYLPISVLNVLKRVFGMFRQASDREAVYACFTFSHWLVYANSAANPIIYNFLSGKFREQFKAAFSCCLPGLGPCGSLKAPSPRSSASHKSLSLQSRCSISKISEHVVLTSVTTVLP

[5] = molecular target: T2, Orexin receptor type 2 (Homo sapiens) (UniProt O43614)
T2 sequence (whole entry): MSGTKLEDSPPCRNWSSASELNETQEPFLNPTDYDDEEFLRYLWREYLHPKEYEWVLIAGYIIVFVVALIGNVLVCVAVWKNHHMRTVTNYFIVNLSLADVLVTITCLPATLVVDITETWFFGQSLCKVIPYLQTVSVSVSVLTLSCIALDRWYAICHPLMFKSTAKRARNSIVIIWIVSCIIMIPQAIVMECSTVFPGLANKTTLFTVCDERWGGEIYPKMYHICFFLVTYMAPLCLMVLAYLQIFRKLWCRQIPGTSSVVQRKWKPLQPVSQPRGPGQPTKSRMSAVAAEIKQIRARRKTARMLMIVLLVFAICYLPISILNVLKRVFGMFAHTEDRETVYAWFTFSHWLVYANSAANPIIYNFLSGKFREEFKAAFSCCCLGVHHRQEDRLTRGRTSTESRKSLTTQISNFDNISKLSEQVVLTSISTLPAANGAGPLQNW
Description: Binding affinity to orexin receptor-2 (unknown origin) assessed as dissociation half-life by SPR assay

[6] = molecular target: T2, Orexin receptor type 2 (Homo sapiens); remark: listed apart in the source
Description: Binding affinity to orexin receptor-2 (unknown origin) assessed as dissociation half-life by Motulsky-Mahan radioligand binding assay

[7] = molecular target: T3, Orexin/Hypocretin receptor type 1 (Homo sapiens, UniProt O43613); test: Displacement of [3H]-4-(2,6-Difluoro-4-methoxybenzyl)-2-(5,6-dimethoxypyridin-3-yl)-2H-1,2,4-benzothiadiazin-3(4H)-one 1,1-dioxide from orexin receptor-1 (unknown origin) after 90 mins
T3 sequence (O43613 whole entry): T1 sequence (whole entry)

Orexin receptor type 2 = molecular target: T4, Orexin receptor type 2 (Homo sapiens, UniProt O43614); test: Displacement of [3H]EMPA from human orexin receptor-2 expressed in HEK293 cells after 90 mins by scintillation counting; assay type: cell-based
T4 sequence (O43614 whole entry): T2 sequence (whole entry)

[8] = Half life in rat liver microsomes; assay type: ADME
[9] = Clearance in Sprague-Dawley rat at 1 mg/kg, iv; assay type: ADME, organism-based; details: in vivo
[10] = Volume of distribution at steady state in Sprague-Dawley rat at 1 mg/kg, iv; assay type: ADME, organism-based; details: in vivo, read-out: Vdss
[11] = Ratio of drug level in brain to plasma in Sprague-Dawley rat at 1 mg/kg, iv after 0.5 hrs; assay type: ADME, organism-based; details: read-out: BPR
[12] = Ratio of drug level in cerebrospinal fluid to brain in Sprague-Dawley rat at 1 mg/kg, iv after 0.5 hrs; assay type: ADME, organism-based, CSF/Brain; details: in vivo
[13] = Half life in Sprague-Dawley rat at 2 mg/kg, po; assay type: ADME, organism-based; details: in vivo
Rattus norvegicus [14] = test: AUC (infinity) in Sprague-Dawley rat at 2 mg/kg, po; assay type: ADME, organism-based; parameters: dose 2 mg/kg, route oral, time infinity; details: in vivo
[15] = Tmax in Sprague-Dawley rat at 2 mg/kg, po; assay type: ADME, organism-based; details: in vivo
[16] = Oral bioavailability in Sprague-Dawley rat at 2 mg/kg; assay type: ADME, organism-based; details: in vivo
[17] = Clearance in beagle dog at 2 mg/kg, iv; assay type: ADME, organism-based, Canis lupus familiaris; details: in vivo
[18] = Volume of distribution at steady state in beagle dog at 2 mg/kg, iv; assay type: ADME, organism-based, Canis lupus familiaris; details: in vivo, read-out: Vdss
[19] = Half life in beagle dog at 2 mg/kg, po; assay type: ADME, organism-based, Canis lupus familiaris; details: in vivo
Canis familiaris = test: AUC (infinity) in beagle dog at 2 mg/kg, po; assay type: ADME, organism-based, Canis lupus familiaris; parameters: dose 2 mg/kg, route oral, time infinity; details: in vivo
[20] = Tmax in beagle dog at 2 mg/kg, po; assay type: ADME, organism-based, Canis lupus familiaris; details: in vivo
[21] = Oral bioavailability in beagle dog at 2 mg/kg; assay type: ADME, organism-based, Canis lupus familiaris; details: in vivo
[22] = molecular target: Orexin/Hypocretin receptor type 2 (Homo sapiens) (UniProt O43614)

Structure (SMILES)	pKi [7]	pKi (Orexin receptor type 2)	half-life [8] [min]	further results
Cc1ccc(-n2nccn2)c(C(=O)N2CCN(c3nc4cc(Cl)ccc4o3)CC[C@H]2C)c1 [SUVOREXANT]				Occ (Rattus norvegicus [1]): 31%; concentration at 1 h [2]: 22 ng/mL; Activity (Rattus norvegicus [3]): Active; T1/2 [4]: 24 min; T1/2 [5]: 210 min; T1/2 [6]: 79 min
COc1ccc(N2C(=O)N(Cc3c(F)cc(F)cc3F)c3ncccc3S2(=O)=O)nc1OC	7.60	8.80	16	clearance [9]: 29 mL/min/kg; Vd [10]: 2.3 L/kg; Kp at 0.5 h [11]: 0.84; Ratio [12]: 0.01; half-life [13]: 78 min; AUC (Rattus norvegicus [14]): 401 ng·h/mL; Tmax [15]: 30 min; bioavailability [16]: 34%
COc1cc(N2C(=O)N(Cc3c(F)cc(F)cc3F)c3ccccc3S2(=O)=O)cc(OC)n1	7.80	8.90	16	clearance [9]: 17 mL/min/kg; Vd [10]: 3.9 L/kg; Kp at 0.5 h [11]: 1.51; Ratio ([12]; BLD = below limit of detection): BLD; half-life [13]: 198 min; AUC (Rattus norvegicus [14]): 705 ng·h/mL; Tmax [15]: 24 min; bioavailability [16]: 36%
COc1ccc(N2C(=O)N(Cc3c(F)cc(F)cc3Cl)c3ccccc3S2(=O)=O)cc1OC	7.60	9.00		
COc1ccc(N2C(=O)N(Cc3c(F)cc(C)cc3Cl)c3ccccc3S2(=O)=O)cc1OC	8.20	9.10		
COc1ccc(N2C(=O)N(Cc3ccccc3F)c3ccccc3S2(=O)=O)cc1OC	6.50	8.20		
COc1ccc(N2C(=O)N(Cc3ccc(Cl)cc3F)c3ccccc3S2(=O)=O)cc1OC	7.20	8.00		
COc1ccc(N2C(=O)N(Cc3c(F)cccc3Cl)c3ccccc3S2(=O)=O)cc1OC	8.10	9.10		
CNc1cc(N2C(=O)N(Cc3c(F)cc(OC)cc3F)c3ncccc3S2(=O)=O)cnc1OC	8.90	9.20	7	
COc1ccc(N2C(=O)N(Cc3ccccc3)c3ccccc3S2(=O)=O)cc1OC	5.70	7.10		
COc1cc(F)c(CN2C(=O)N(c3cnc(OC)c(OC)c3)S(=O)(=O)c3ccccc32)c(F)c1	8.60	9.40	9	
COc1ccc(N2C(=O)N(Cc3ccc(F)cc3Cl)c3ccccc3S2(=O)=O)cc1OC	< 5.60	7.60		
COc1cc(F)c(CN2C(=O)N(c3ccc(OC)c(OC)c3)S(=O)(=O)c3ccccc32)c(F)c1	8.70	9.30		
COc1cc(N2C(=O)N(Cc3c(F)cc(F)cc3F)c3ccccc3S2(=O)=O)ccn1	6.40	7.20	23	
COc1ccc(-n2c(=O)c3ccccc3n(Cc3ccccc3Cl)c2=O)cc1OC	< 5.20	< 5.00		
COc1ccc(N2C(=O)N(Cc3c(F)cc(F)cc3F)c3ccccc3S2(=O)=O)cc1OC	7.30	8.70		
COc1cc(N2C(=O)N(Cc3c(F)cc(F)cc3F)c3ccccc3S2(=O)=O)cnc1OC	7.90	8.30	28	clearance [9]: 18 mL/min/kg; clearance [17]: 5 mL/min/kg; Vd [10]: 2.2 L/kg; Vd [18]: 3.6 L/kg; Kp at 0.5 h [11]: 0.77; Ratio [12]: 0.01; half-life [13]: 96 min; half-life [19]: 636 min; AUC (Rattus norvegicus [14]): 558 ng·h/mL; AUC (Canis familiaris): 6960 ng·h/mL; Tmax [15]: 90 min; Tmax [20]: 24 min; bioavailability [16]: 29%; bioavailability [21]: 100%; T1/2 [22]: 4.3 min; T1/2 [6]: 3 min
COc1cc(N2C(=O)N(Cc3c(F)cc(F)cc3Cl)c3ccccc3S2(=O)=O)cnc1OC	7.40	8.80	23	clearance [9]: 34 mL/min/kg; Vd [10]: 3.5 L/kg; Kp at 0.5 h [11]: 0.79; Ratio [12]: 0.02; half-life [13]: 108 min; AUC (Rattus norvegicus [14]): 300 ng·h/mL; Tmax [15]: 48 min; bioavailability [16]: 29%
COc1cc(F)c(CN2C(=O)N(c3ccc(OC)c(OC)c3)S(=O)(=O)c3ccccc32)c(Cl)c1	9.40	10.00		
COc1ccc(N2C(=O)N(Cc3ccc4c(c3)OCO4)c3ccccc3S2(=O)=O)cc1OC		6.60		
COc1cc(F)c(CN2C(=O)N(c3cc(OC)nc(OC)c3)S(=O)(=O)c3ccccc32)c(F)c1	9.00	9.60	16	
COc1cc(F)c(CN2C(=O)N(c3ccc(OC)c(OC)n3)S(=O)(=O)c3ccccc32)c(F)c1		9.70	8	
COc1ccc(N2C(=O)N(Cc3c(F)cc(F)cc3OC)c3ccccc3S2(=O)=O)cc1OC	7.20	8.20		
